Results on two compounds are retold here after patent publication US20220127297A1, “Novel Antibacterial 3"-Derivatives Of 4,6-Disubstituted 2,5-Dideoxystreptamine Aminoglycoside Antibiotics” (AGILeBiotics B.V., priority 2018, published 2022).

Converted amounts (≈) assume the structure as drawn. Read-outs that look alike come from different tables or passages of the source.

Data set [1] concerns clinical isolates of multidrug-resistant Klebsiella pneumoniae (and ATCC43816). The experiment in a line: MIC determination at Fidelta, clinical isolates. The class given is cell-based. In outline:
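Clinical isolates and ATCC reference strains revived on MH agar, tested by broth microdilution in Mueller Hinton broth. Compounds from 5 mg/mL DMSO stocks, two-fold serial dilutions, final 64-0.125 μg/mL.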

Data set [2] in a line: Maximum tolerated dose (MTD) / acute toxicity study, IV. The class given is in vivo. Particulars: for MTD at 4 days / LD50 at 4 days: male, CD (Sprague Dawley), rat, in vivo, iv. The method, then:
4.4 Maximum Tolerated Dose (MTD) Study in Male CD (Sprague Dawley) Rats.
The study was performed in an AAALAC I—approved Facility. The standard study plan relating to this study was reviewed by the Ethical Committee (CARE-Zagreb) as required by International Laws/Regulations and Croatian Low on Animal Welfare (“The Animal Protection Act”, Official Gazette, NN 37/13) and Animal Welfare Officer.
In vivo studies were performed by Fidelta (Zagreb, Croatia) and all rats (Sprague Dawley) were obtained from Charles River Laboratories (Italy). Three compounds, i.e. ABX5006, ABX5020 and ABX5039 were tested to determine the MTD of the test articles in male CD (Sprague Dawley) rats following a one-time dose (IV).
MTD study: Pathogen-free male CD (Sprague Dawley) rats (3 rats per dosing group) weighing 225-260 g were used. Five different dosing groups (50 mg/kg, 75 mg/kg, 100 mg/kg, 150 mg/kg and 200 mg/kg) were used and the test article was administered intravenous over 15 min (slow injection, 5 mL/kg). […] Clinical signs, body weight, food consumption and mortality was recorded during the in-life phase of the study. All animals surviving to the end of the 4 day monitoring period were euthanized on day 4. Terminal studies included gross necropsy and organ weight recording of all animals.
Supplies/Chemicals. Sterile, single used needles (25 G Microlance, REF300400, Becton Dickinson); 2 mL syringes (REF300185, Becton Dickinson); Phosphate buffered saline (P3813, Sigma Aldrich); isoflurane anesthesia (Abbott, Netherlands)
Anesthesia. Animals were deeply anaesthetized using isoflurane and subsequently exsangunated for full post mortem examination.

The mark [3] stands for this setting: Klebsiella pneumoniae, ATCC43816, KP-1919, Abdomen/VIM, ESBL, read-out: MIC 90.
Where [4] appears, read: Klebsiella pneumoniae, ATCC43816, KP-1935, Urine/ESBL, NDM, read-out: MIC 90.
[5] abbreviates: Klebsiella pneumoniae, ATCC43816, KP-1936, Abscess/NDM, read-out: MIC 90.
The mark [6] stands for this setting: Klebsiella pneumoniae, ATCC43816, KP-1937, Blood/VIM, ESBL, read-out: MIC 90.
Where [7] appears, read: Klebsiella pneumoniae, ATCC43816, KP-1942, Urine (catheter)/VIM, read-out: MIC 90.
The mark [8] stands for this setting: Klebsiella pneumoniae, ATCC43816, KP-1944, Blood/NDM, read-out: MIC 90.
[9] abbreviates: Klebsiella pneumoniae, ATCC43816, KP-2027, Tracheal aspirate/ESBL, OXA-48, ColR, read-out: MIC 90.
Where [10] appears, read: Klebsiella pneumoniae, ATCC43816, KP-2029, Urine/ESBL, OXA-48, read-out: MIC 90.
The mark [11] stands for this setting: Klebsiella pneumoniae, ATCC43816, KP-2030, Trachea/ESBL, OXA-48, read-out: MIC 90.
The mark [12] stands for this setting: Klebsiella pneumoniae, ATCC43816, KP-2031, Skin/ESBL, OXA-48, read-out: MIC 90.
Where [13] appears, read: Klebsiella pneumoniae, ATCC43816, KP-2032, Urine/ESBL, OXA-48, read-out: MIC 90.
The mark [14] stands for this setting: Klebsiella pneumoniae, ATCC43816, KP-2033, Urine/OXA-A8, read-out: MIC 90.
The mark [15] stands for this setting: Klebsiella pneumoniae, ATCC43816, KP-2034, Urine/ESBL, OXA-48, read-out: MIC 90.
The mark [16] stands for this setting: Klebsiella pneumoniae, ATCC43816, KP-2035, Urine/ESBL, OXA-48, read-out: MIC 90.
[17] abbreviates: Klebsiella pneumoniae, ATCC43816, KP-2036, Urine/ESBL, read-out: MIC 90.
Setting [18] is: Klebsiella pneumoniae, ATCC43816, KP-2037, Urine/ESBL, OXA-48, read-out: MIC 90.
Where [19] appears, read: rats, one-time IV dose over 15 min.

A word on the MTD: it is the highest dose tested that stayed within the study's limit of toxicity. Low values mean poorer tolerability, high ones better tolerability. The term LD50 denotes the dose at which mortality reaches 50%. A high value points to lower toxicity. On to `N=C(NC[C@@H]1CCCN1)NC1[C@@H](O)C(OC2[C@@H](F)[C@H](O[C@H]3OC(CN)[C@@H](O)CC3N)C(N)C[C@H]2NC(=O)[C@@H](O)CCN)O[C@H](CO)[C@H]1O` (stereo partly drawn) [ABX5026, Tobra-AHB-F-Gua (S) pyrrolidine-2-yl-methyl], for which the “MIC90” value in data set [1] (K. pneumoniae ATCC43816 strain) is 1 µg/mL (≈ 1.44 µM); in data set [1] (setting [3]), 1 µg/mL (≈ 1.44 µM); in data set [1] (setting [4]) it was 1 µg/mL (≈ 1.44 µM); in data set [1] (setting [5]) it was 1 µg/mL (≈ 1.44 µM); in data set [1] (setting [6]), 2 µg/mL (≈ 2.87 µM); in data set [1] (setting [7]), 1 µg/mL (≈ 1.44 µM). The MIC90 in data set [1] (setting [8]) stood at 2 µg/mL (≈ 2.87 µM); in data set [1] (setting [9]), 1 µg/mL (≈ 1.44 µM); in data set [1] (setting [10]), 0.5 µg/mL (≈ 0.719 µM); in data set [1] (setting [11]) it was 1 µg/mL (≈ 1.44 µM); in data set [1] (setting [12]), 0.5 µg/mL (≈ 0.719 µM); in data set [1] (setting [13]), 0.5 µg/mL (≈ 0.719 µM). Also, the MIC90 in data set [1] (setting [14]) was determined as 0.5 µg/mL (≈ 0.719 µM); in data set [1] (setting [15]), 1 µg/mL (≈ 1.44 µM); in data set [1] (setting [16]) it was 0.5 µg/mL (≈ 0.719 µM); in data set [1] (setting [17]) it was 0.5 µg/mL (≈ 0.719 µM); in data set [1] (setting [18]), 0.5 µg/mL (≈ 0.719 µM). Further, the maximal tolerated dose (MTD) at 4 days in data set [2] came out at 75 mg/kg. Further, in data set [2] (setting [19]), the LD50 at 4 days is > 75 mg/kg.

`N=C(NC[C@@H]1CCNC1)NC1[C@@H](O)C(OC2[C@@H](F)[C@H](O[C@H]3OC(CN)[C@@H](O)CC3N)C(N)C[C@H]2NC(=O)[C@@H](O)CCN)O[C@H](CO)[C@H]1O` (stereo partly drawn) [ABX5039, Tobra-AHB-F-Gua (R) pyrrolidine-3-ylmethyl]: the “MIC90” value was 1 µg/mL (≈ 1.44 µM) in data set [1] (K. pneumoniae ATCC43816 strain); 1 µg/mL (≈ 1.44 µM) in data set [1] (setting [3]); 2 µg/mL (≈ 2.87 µM) in data set [1] (setting [4]); 1 µg/mL (≈ 1.44 µM) in data set [1] (setting [5]); 2 µg/mL (≈ 2.87 µM) in data set [1] (setting [6]); 1 µg/mL (≈ 1.44 µM) in data set [1] (setting [7]). Besides, the MIC90 in data set [1] (setting [8]) is 2 µg/mL (≈ 2.87 µM); in data set [1] (setting [9]) it was 1 µg/mL (≈ 1.44 µM); in data set [1] (setting [10]), 0.5 µg/mL (≈ 0.719 µM); in data set [1] (setting [11]), 1 µg/mL (≈ 1.44 µM); in data set [1] (setting [12]), 0.5 µg/mL (≈ 0.719 µM); in data set [1] (setting [13]) it was 0.5 µg/mL (≈ 0.719 µM). Moreover, the MIC90 in data set [1] (setting [14]) turned out to be 0.5 µg/mL (≈ 0.719 µM); in data set [1] (setting [15]) it was 1 µg/mL (≈ 1.44 µM); in data set [1] (setting [16]), 1 µg/mL (≈ 1.44 µM); in data set [1] (setting [17]) it was 1 µg/mL (≈ 1.44 µM); in data set [1] (setting [18]) it was 0.5 µg/mL (≈ 0.719 µM). In data set [2], this compound gave an MTD at 4 days of 75 mg/kg. The LD50 at 4 days in data set [2] (setting [19]) was > 75 mg/kg. Also, the median lethal dose (LD50) in data set [2] (setting [19]) lay within 75 to 100 mg/kg.
